{
  "source": "patent US12692241B2",
  "about": "“Substituted triazine compound” (Nico Therapeutics, Inc., priority 2021, dated 2026)",
  "data": [
    {"tested_on": "IL-1β production in THP-1 cells (LPS and ATP; NLRP3 inflammasome activation)", "assay": "THP-1 IL-1β production inhibitory test", "format": "cell-based, human", "conditions": "Homo sapiens, THP-1, 2 h, PMA-differentiated THP-1 cells, LPS 50 ng/mL and ATP 5 mM, 2 hours, ELISA; read-out: IC50 (nM), IL-1β production", "experimental": "THP-1 IL-1β Production Inhibitory Test\nTo THP-1 cells, 50 ng/mL PMA (phorbol myristate acetate, SIGMA, P1585) was added at 37° C. and then the cells were cultured for 2 days. […] The cells were cultured at 37° C. for 15 minutes. LPS (lipopolysaccharide, SIMGA, L2880) and ATP (adenosine triphosphate, SIGMA, A2383) were added such that the final concentrations of them became 50 ng/mL and 5 mM, respectively. The cells were cultured at 37° C. for 2 hours. The supernatant was collected and the concentration of IL-1β was measured by ELISA (DuoSet ELISA human IL-1β, R&D Systems, DY201). The concentration of IL-1β was plotted against the logarithm of the concentration of the test compound, and the IC50 value was calculated by sigmoidal Emax model nonlinear regression analysis.", "units": {"IC50": "nM"}, "values": [
      {"smiles": "Cc1nc(Nc2ccn(CCO)n2)nnc1-c1ccc(C(F)(F)F)cc1O", "note": "[Example 90]", "IC50": 53},
      {"smiles": "Cc1nc(NCC2CC2)nnc1-c1ccc(C(F)(F)F)cc1O", "note": "[Example 91]", "IC50": 52},
      {"smiles": "Cc1nc(NCc2cccnc2)nnc1-c1ccc(C(F)(F)F)cc1O", "note": "[Example 92]", "IC50": 200},
      {"smiles": "Cc1nc(Nc2cnn(C)c2)nnc1-c1ccc(C(F)(F)F)cc1O", "note": "[Example 93]", "IC50": 130},
      {"smiles": "Cc1nc(NCc2cc[nH]n2)nnc1-c1ccc(C(F)(F)F)cc1O", "note": "[Example 94]", "IC50": 70},
      {"smiles": "Cc1nc(NCCN2CCOCC2)nnc1-c1ccc(C(F)(F)F)cc1O", "note": "[Example 95]", "IC50": 410},
      {"smiles": "Cc1nc(NCC2CCCCO2)nnc1-c1ccc(C(F)(F)F)cc1O", "note": "(stereo not shown) [Example 96]", "IC50": 81},
      {"smiles": "Cc1nc(Nc2ccn(C)n2)nnc1-c1ccc(C(F)(F)F)cc1O", "note": "[Example 97]", "IC50": 150},
      {"smiles": "Oc1cc(C(F)(F)F)ccc1-c1nnc(N[C@@H]2CCCC[C@H]2O)nc1-c1ccccc1", "note": "[Example 98]", "IC50": 280},
      {"smiles": "Cc1nc(N[C@H]2C[C@H](CO)C2)nnc1-c1ccc(C(F)(F)F)cc1O", "note": "[Example 99]", "IC50": 9.4},
      {"smiles": "Cc1nc(N[C@H]2C[C@@H](CO)C2)nnc1-c1ccc(C(F)(F)F)cc1O", "note": "[Example 100]", "IC50": 6.4},
      {"smiles": "Cc1nc(NCCC#N)nnc1-c1ccc(C(F)(F)F)cc1O", "note": "[Example 101]", "IC50": 130},
      {"smiles": "Cc1nc(N[C@@H]2CC[C@H](C#N)C2)nnc1-c1ccc(C(F)(F)F)cc1O", "note": "[Example 102]", "IC50": 11},
      {"smiles": "Cc1nc(N[C@@H]2CC[C@@H](C#N)C2)nnc1-c1ccc(C(F)(F)F)cc1O", "note": "[Example 103]", "IC50": 30},
      {"smiles": "CC(=O)NCCC1(CNc2nnc(-c3ccc(C(F)(F)F)cc3O)c(C)n2)CCC1", "note": "[Example 104]", "IC50": 91},
      {"smiles": "CC(=O)NC[C@H]1C[C@@H](Nc2nnc(-c3ccc(C(F)(F)F)cc3O)c(C)n2)C1", "note": "[Example 105]", "IC50": 36},
      {"smiles": "CC(=O)NC[C@H]1C[C@H](Nc2nnc(-c3ccc(C(F)(F)F)cc3O)c(C)n2)C1", "note": "[Example 106]", "IC50": 26},
      {"smiles": "Cc1nc(Nc2ccn(C[C@@H](C)O)n2)nnc1-c1ccc(C(F)(F)F)cc1O", "note": "[Example 107]", "IC50": 25},
      {"smiles": "Oc1cc(C(F)(F)F)ccc1-c1nnc(N[C@@H]2CCCC[C@H]2O)nc1C1CC1", "note": "[Example 109]", "IC50": 17},
      {"smiles": "Oc1cc(C(F)(F)F)ccc1-c1nnc(N[C@@H]2CCC[C@H]2O)nc1C1CC1", "note": "[Example 110]", "IC50": 15},
      {"smiles": "Oc1cc(C(F)(F)F)ccc1-c1nnc(N[C@@H]2CCOC[C@H]2O)nc1C1CC1", "note": "[Example 111]", "IC50": 12},
      {"smiles": "Oc1cc(OC(F)(F)F)ccc1-c1nnc(N[C@@H]2CCOC[C@H]2O)nc1C1CC1", "note": "[Example 112]", "IC50": 18},
      {"smiles": "Oc1cc(Cl)ccc1-c1nnc(N[C@@H]2CCOC[C@H]2O)nc1C1CC1", "note": "[Example 113]", "IC50": 37},
      {"smiles": "Cc1ccc(-c2nnc(N[C@@H]3CCOC[C@H]3O)nc2C2CC2)c(O)c1", "note": "[Example 114]", "IC50": 33},
      {"smiles": "Oc1cc(Cl)ccc1-c1nnc(N[C@@H]2CCCC[C@H]2O)nc1C1CC1", "note": "[Example 115]", "IC50": 8.5},
      {"smiles": "Oc1cc(OC(F)(F)F)ccc1-c1nnc(N[C@@H]2CCCC[C@H]2O)nc1C1CC1", "note": "[Example 116]", "IC50": 23},
      {"smiles": "Cc1ccc(-c2nnc(N[C@@H]3CCCC[C@H]3O)nc2C2CC2)c(O)c1", "note": "[Example 117]", "IC50": 19},
      {"smiles": "Oc1cc(C(F)(F)F)ccc1-c1nnc(N[C@@H]2CCCC[C@H]2O)nc1C(F)F", "note": "[Example 118]", "IC50": 47},
      {"smiles": "Cc1ccc(-c2nnc(N[C@H]3C[C@@](C)(O)C3)nc2C2CC2)c(O)c1", "note": "[Example 119]", "IC50": 42},
      {"smiles": "C[C@]1(O)C[C@@H](Nc2nnc(-c3ccc(OC(F)(F)F)cc3O)c(C3CC3)n2)C1", "note": "[Example 120]", "IC50": 83},
      {"smiles": "C[C@]1(O)C[C@@H](Nc2nnc(-c3ccc(Cl)cc3O)c(C3CC3)n2)C1", "note": "[Example 121]", "IC50": 43},
      {"smiles": "C[C@@]1(O)CCCC[C@H]1Nc1nnc(-c2ccc(C(F)(F)F)cc2O)c(C2CC2)n1", "note": "[Example 122]", "IC50": 15},
      {"smiles": "C[C@@]1(O)CCCC[C@H]1Nc1nnc(-c2ccc(Cl)cc2O)c(C2CC2)n1", "note": "[Example 123]", "IC50": 54},
      {"smiles": "C[C@@]1(O)CCCC[C@H]1Nc1nnc(-c2ccc(OC(F)(F)F)cc2O)c(C2CC2)n1", "note": "[Example 124]", "IC50": 37}
    ]}
  ]
}
